According to patent publication US9409880B2, “Modulators of TLR3/dsRNA complex and uses thereof” (The Regents of the University of Colorado, a body corporate, priority 2011, dated 2016):

Key:
TLR4 = biological target: T1, TLR4 (Mus musculus, UniProt Q9QUK6); assay: RAW264.7 cell nitric oxide TLR selectivity assay (LPS); type: cell-based; details: 27 μM
T1 construct: endogenous in cells; host or cells: RAW 264.7
T1 sequence (Q9QUK6 26-835): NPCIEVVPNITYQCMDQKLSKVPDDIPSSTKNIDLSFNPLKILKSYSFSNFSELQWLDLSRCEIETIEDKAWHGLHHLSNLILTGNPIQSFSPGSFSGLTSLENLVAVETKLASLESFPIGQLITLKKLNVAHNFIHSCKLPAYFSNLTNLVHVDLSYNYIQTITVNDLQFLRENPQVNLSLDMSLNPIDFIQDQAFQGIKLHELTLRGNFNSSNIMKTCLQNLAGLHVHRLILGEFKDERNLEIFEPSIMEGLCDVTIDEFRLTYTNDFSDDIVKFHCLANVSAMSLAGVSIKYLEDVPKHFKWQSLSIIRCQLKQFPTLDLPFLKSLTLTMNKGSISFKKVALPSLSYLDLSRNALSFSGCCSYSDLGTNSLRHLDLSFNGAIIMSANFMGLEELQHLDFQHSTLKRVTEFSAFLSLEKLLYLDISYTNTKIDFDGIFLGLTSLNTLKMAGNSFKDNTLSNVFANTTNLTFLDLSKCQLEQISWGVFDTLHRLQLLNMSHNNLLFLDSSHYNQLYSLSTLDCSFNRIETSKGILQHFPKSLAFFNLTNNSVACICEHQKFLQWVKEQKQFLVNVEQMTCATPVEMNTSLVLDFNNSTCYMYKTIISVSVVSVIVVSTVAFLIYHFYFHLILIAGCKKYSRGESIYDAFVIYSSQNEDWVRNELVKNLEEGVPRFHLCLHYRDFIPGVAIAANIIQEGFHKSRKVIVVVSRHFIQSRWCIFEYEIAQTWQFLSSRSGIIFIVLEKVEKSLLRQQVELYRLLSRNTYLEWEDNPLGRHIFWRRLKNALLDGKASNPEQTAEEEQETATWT
T1 sequence (Q9JHF9 19-160 partner): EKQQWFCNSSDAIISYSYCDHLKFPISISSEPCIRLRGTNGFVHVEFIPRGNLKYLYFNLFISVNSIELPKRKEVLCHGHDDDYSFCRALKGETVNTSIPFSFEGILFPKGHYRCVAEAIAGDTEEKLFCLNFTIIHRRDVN

TLR2/1 = biological target: T2, TLR2/1 (Mus musculus, UniProt Q9EPQ1+Q9QUN7); assay: RAW264.7 cell nitric oxide TLR selectivity assay (Pam3CSK4); type: cell-based; details: 27 μM
T2 construct: endogenous in cells; host or cells: RAW 264.7
T2 sequence (Q9QUN7 25-784): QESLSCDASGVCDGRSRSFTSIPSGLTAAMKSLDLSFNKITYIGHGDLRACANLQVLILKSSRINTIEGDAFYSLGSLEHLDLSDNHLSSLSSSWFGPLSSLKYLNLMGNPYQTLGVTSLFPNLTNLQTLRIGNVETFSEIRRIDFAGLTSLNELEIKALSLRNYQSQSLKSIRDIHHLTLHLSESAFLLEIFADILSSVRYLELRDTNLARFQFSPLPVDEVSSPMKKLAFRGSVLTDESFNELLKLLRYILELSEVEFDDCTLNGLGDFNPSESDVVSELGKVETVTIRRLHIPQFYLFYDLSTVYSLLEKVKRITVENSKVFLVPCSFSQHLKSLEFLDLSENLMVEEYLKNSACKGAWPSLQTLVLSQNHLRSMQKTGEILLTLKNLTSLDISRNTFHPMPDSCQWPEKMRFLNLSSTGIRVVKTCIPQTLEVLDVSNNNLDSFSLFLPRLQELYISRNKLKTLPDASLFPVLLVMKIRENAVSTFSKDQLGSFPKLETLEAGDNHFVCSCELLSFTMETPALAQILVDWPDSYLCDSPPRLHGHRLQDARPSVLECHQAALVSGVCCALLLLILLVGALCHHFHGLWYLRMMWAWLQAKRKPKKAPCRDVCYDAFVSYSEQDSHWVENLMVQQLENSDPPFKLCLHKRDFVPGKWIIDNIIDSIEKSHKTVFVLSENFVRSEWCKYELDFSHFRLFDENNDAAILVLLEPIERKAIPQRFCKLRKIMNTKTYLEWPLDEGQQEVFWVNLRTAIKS
T2 sequence (Q9EPQ1 25-795 limits assumed): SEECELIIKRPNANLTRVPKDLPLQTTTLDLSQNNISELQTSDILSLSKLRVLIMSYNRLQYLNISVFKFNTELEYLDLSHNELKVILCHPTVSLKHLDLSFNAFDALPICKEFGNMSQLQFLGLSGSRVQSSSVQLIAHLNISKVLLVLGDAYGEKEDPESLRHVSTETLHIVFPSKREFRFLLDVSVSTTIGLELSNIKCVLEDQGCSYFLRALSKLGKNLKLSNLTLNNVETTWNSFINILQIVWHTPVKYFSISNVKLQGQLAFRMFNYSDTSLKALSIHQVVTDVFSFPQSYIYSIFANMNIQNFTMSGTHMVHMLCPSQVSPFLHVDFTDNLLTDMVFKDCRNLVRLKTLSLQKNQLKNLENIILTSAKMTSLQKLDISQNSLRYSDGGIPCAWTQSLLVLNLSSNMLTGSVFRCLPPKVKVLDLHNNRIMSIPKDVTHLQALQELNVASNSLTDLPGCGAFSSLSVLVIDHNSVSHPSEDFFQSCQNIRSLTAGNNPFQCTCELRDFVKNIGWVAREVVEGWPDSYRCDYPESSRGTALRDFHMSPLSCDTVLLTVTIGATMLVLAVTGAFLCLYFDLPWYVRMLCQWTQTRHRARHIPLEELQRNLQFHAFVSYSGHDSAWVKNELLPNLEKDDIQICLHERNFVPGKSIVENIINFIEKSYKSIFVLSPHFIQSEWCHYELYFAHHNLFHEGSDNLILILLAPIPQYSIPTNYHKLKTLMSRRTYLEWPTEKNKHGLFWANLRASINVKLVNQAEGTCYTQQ

TLR3 = biological target: T3, TLR3 (Homo sapiens, UniProt O15455); assay: Fluorescence anisotropy assay, competition with Rhodamine labeled Poly IC; type: binding
T3 construct: purchased R &D
T3 sequence (O15455 24-904): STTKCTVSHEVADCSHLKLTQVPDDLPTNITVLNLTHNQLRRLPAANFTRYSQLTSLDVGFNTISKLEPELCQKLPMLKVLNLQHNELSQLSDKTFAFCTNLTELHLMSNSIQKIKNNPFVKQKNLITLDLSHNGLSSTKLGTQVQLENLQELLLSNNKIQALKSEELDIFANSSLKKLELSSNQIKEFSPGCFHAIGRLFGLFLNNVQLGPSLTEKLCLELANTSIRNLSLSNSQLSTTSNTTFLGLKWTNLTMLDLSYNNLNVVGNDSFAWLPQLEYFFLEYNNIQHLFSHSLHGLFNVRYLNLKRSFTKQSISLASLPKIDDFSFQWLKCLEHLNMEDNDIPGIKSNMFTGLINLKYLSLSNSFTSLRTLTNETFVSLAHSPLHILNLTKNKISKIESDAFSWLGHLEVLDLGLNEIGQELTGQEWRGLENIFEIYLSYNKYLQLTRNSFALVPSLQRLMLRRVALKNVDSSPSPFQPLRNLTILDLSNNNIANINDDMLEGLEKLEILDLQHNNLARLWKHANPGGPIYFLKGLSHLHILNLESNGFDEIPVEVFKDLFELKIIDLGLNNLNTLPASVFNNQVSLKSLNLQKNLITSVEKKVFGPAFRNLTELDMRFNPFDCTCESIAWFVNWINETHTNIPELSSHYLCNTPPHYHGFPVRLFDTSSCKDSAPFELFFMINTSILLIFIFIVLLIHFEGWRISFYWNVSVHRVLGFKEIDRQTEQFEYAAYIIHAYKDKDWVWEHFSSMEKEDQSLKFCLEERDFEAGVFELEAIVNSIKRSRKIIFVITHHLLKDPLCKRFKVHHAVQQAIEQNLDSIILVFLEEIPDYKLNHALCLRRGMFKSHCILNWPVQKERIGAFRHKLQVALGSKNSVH
Procedure: The anisotropy of Rhodamine labeled Poly IC increased from approximately 0.116 to 0.171 upon addition of TLR3 (excitation=546 nm; emission=576 nm).
In 500 μL Tris buffer (pH=7.2) add 5 μL (1 μg/mL) Rhodamine labeled Poly IC (Invivogen), test the anisotropy at excitation of 546 nm and emission of 576 nm (Horiba Fluorolog 3). An addition 3 μL (20 μM) of TLR3 (R &D) was added in the buffer, then test the anisotropy again. Following, 4a was added in the buffer from 0 to 68 μM, and the fluorescence anisotropy was tested when the concentration was changed.

Cyp3A4 = biological target: T4, Cyp3A4 (Homo sapiens, UniProt P08684); assay: Cytochrome P450 toxicity assay; type: in vitro ADME; details: 25 μM and 50 μM; compared to known inhibitor ketoconazole
T4 construct: tissue Apredica (testing lab); host or cells: microsomes (subcellular fractions)
T4 sequence (P08684 whole entry): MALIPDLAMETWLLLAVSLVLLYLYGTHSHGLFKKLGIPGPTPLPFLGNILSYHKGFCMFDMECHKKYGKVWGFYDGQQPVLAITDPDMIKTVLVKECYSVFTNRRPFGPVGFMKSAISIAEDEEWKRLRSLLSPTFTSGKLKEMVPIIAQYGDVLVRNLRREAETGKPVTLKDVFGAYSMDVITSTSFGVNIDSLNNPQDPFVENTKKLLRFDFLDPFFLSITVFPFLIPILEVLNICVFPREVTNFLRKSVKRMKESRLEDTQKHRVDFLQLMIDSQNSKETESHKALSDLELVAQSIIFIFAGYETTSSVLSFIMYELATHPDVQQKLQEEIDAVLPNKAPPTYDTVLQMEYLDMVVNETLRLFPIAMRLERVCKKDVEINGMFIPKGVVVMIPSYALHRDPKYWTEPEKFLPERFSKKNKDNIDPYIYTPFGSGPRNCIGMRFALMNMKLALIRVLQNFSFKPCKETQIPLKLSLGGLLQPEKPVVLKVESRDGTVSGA
Procedure: Test agent was incubated (two wells per condition) with microsomes at 37° C. Control incubations containing vehicle or reference inhibitors were run along side the test agents. The final assay contained test agent, probe substrates at the indicated concentration, 2 mM NADPH, 3 mM MgCl2 in 50 mM potassium phosphate buffer, pH 7.4. The final microsomal concentration was 0.5 mg/mL. The maximum solvent concentration in the final assay was ≦0.5% to minimize the inhibition of Cyps by solvent. NADPH was added last to start the assay. At the end of ten minutes incubation, the assay was stopped by the addition of acetonitrile containing internal standard, the samples were centrifuged, and the amount of probe metabolite in the supernatant was determined by LC/MS/MS. (Testing was done by Apredica, Watertown, Mass. using subcellular fractions)

[1] = system: poly IC-induced impaired re-endothelialization; assay: Vascular repair: re-endothelialization after carotid artery denudation; type: in vivo, Mice; details: 27 μg i.p. every 48 hours; 100 μg poly IC i.v.; Evan's blue staining
Procedure: Mice were subjected to a 4 mm long electric denudation of the left common carotid artery. These C57B1/6J littermates were then treated with 100 μg of poly IC or vehicle (NaCl 0.9%) via i.v. injection every 48 hours for five days. Half of the mice in each group were also treated with 27 μg compound 4a or vehicle (DMSO) via i.p. injection every 48 hours. The mice were then sacrificed and aortic arch including both common carotid arteries excised. The remaining endothelial lesion was visualized using Evan's blue staining.

O=C(N[C@H](Cc1ccccc1)C(=O)O)c1sc2cc(F)ccc2c1Cl [Compound 4a, (R)-2-(3-chloro-6-fluorobenzo[b]thiophene-2-carboxamido)-3-phenylpropanoic acid]
effect on TLR4 signaling (TLR4): without significantly affecting other TLRs
effect on TLR2/1 signaling (TLR2/1): without significantly affecting other TLRs
TLR3 binding competition with dsRNA (TLR3): competes with dsRNA in binding to TLR3
Ki (TLR3; competes with dsRNA for binding to TLR3): 2960 ± 320 nM
anisotropy of Rhodamine labeled Poly IC (TLR3; compound concentration increased to 68 μM): decreased the anisotropy to background levels
toxicity to Cyp3A4 (Cyp3A4): low toxicity
poly IC-induced impaired re-endothelialization [1]: significantly improves poly IC-induced impaired re-endothelialization
